How the values were obtained:
B16 melanoma [1] = experiment: In vitro binding of [125I]BZZ to homogenate of B16 melanoma; parameters: species or system mouse
Method: (§1) A tissue homogenate rather than washed particulate material was used for the assay. The assay system (final volume 200 μ) contained Tris-HCl (pH 7.4), 80 mM; ethyleneglyco-bis-(β-aminoethyl ether) N,N',tetraacetic (EGTA), 0.8 mM and MgSO4, 10 mM; radiolabeled ligand (40,000 cpm, 60 pM) and the unlabeled ligand as required for competitive assay; and incubations were performed at 25° C. for about 60 min. When binding to striatum and to tumor were compared, binding to homogenates of both tissues was determined simultaneously. In order to determine the reproducibility of the results, ligand binding was determined in 3 replicate samples for each experimental condition. The mean of these three values was taken as a single errorless value and the mean of three (or more) of such values from independent experiments is reported. Data represent mean ± SE.

D-1 dopamine receptor = biological target: T1, D-1 dopamine receptor (Mus musculus, UniProt Q61616); experiment: In vitro binding of [125I]BZZ to homogenate of caudate putamen (competition with unlabeled SCH23390 enantiomers); conditions: FIG. 4A
T1 construct: homogenate of the caudate putamen of the Swiss Webster mouse brain; from tissue; host or cells: caudate-putamen homogenate, Swiss Webster mouse brain
T1 sequence (Q61616 whole entry): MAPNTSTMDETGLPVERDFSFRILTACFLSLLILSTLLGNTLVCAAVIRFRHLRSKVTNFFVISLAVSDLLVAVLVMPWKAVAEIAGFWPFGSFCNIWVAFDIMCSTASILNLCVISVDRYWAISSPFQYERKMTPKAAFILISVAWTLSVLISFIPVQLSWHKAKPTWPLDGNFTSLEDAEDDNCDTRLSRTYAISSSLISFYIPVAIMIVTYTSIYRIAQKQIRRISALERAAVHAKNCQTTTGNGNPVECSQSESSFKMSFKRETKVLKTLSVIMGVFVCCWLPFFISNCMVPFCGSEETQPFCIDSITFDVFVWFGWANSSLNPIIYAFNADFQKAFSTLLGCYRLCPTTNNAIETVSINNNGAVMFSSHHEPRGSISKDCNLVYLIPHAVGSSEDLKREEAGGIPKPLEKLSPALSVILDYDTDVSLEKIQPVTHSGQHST
Method: as §1

[2] = system: caudate nucleus of the rat brain; experiment: Binding of [125I]BZZ enantiomers to homogenate of caudate nucleus; conditions: FIG. 5
Method: as §1

human melanoma = experiment: In vitro autoradiography of frozen sections of human melanoma (lymph node); type: binding; conditions: lymph node with pigmented metastatic melanoma; 200 pM ligand; FIG. 6 right
Method: (§2) After animals were killed, the brain, eyes or tumor were immediately removed and frozen on dry ice. Frozen, 16 μthick sections were cut in a cryostat at -16° C., thaw-mounted onto gelatin-coated slides and stored overnight under vacuum at 4° C. The tissue sections were preincubated for 15 min in 50 mM Tris-HCl buffer, pH 7.4, for 15 min and then incubated for 20 min in a solution containing 50 mM Tris-HCl, pH 7.4, 120 mM NaCl, 5 mM KCl, 2 mM CaCl2, 1 mM MgCl2 and 200 pM iodinated ligand (either R or S enantiomer). After incubation, the slides were washed 4 times in ice-cold 50 mM Tris-HCl buffer and dried under a stream of air. Autoradiographic images were produced by placing the slides in X-ray casettes and using them to expose [^3 H]ultra film for 15 hours following standard procedure.

B16 melanoma [3] = experiment: In vitro autoradiography of frozen sections of B16 melanoma; type: binding, mouse; conditions: 200 pM ligand; FIG. 6 left
Method: as §2

[4] = In vivo accumulation of radiolabel in eyes of pigmented and albino mice; parameters: species or system mouse
Method: (§3) Radiolabeled ligand was dissolved in Hank's balanced salt solution and administered via the tail vein as a bolus of 100 μl. At appropriate times, the animals were sacrificed and various organs removed. The amount of ^125 I radioactivity within a given organ was determined with a gamma counter.
as §2

B16 melanoma [5] = experiment: In vivo accumulation of intravenously administered radiolabel in B16 melanoma (gamma counting, autoradiography); parameters: species or system mouse
Method: The B16 melanoma was removed from the host mouse, washed in a balanced salt solution and then cut into small fragments (approximately 2 mm cubes). A tumor fragment was then implanted subcutaneously with a trochar into either the back or hind limb of the recipient mouse (either a C57/B16 or Swiss-Webster). Tumors could be easily seen within 2 to 3 weeks after implantation of the tumor fragment.
as §3, §2

[6] = In vitro autoradiography of frozen section of retina; type: binding, mouse; conditions: FIG. 3C
Method: as §2
Emulsion autoradiography was performed as follows: a flexible coverslip coated with NTB-3 (Kodak) was exposed to the tissue section; when the exposure was complete in about a day (about 24 hrs) the emulsion was developed at 4° for 2 min in D-19 developer. The section was stained with hematoxylin and eosin and the coverslip was reexposed to the stained section.

B16 melanoma [7] = experiment: Noninvasive imaging of [125I] with pinhole collimator and gamma camera; type: in vivo, mouse; conditions: tumor-bearing and nontumor-bearing mice; 50 μCi intravenous; FIG. 2
Method: Mice received a bolus injection of [^125 I]BZZ (50 μCi) dissolved in Hank's balanced salt solution via the tail vein. At several times, the distribution of [^125 I]was determined by imaging with a pinhole collimeter attached to a gamma camera (Raytheon Nuclear Diagnostics).

[8] = mouse given B16 melanoma cells intravenously 3 weeks earlier, 50 μCi, autoradiogram FIG. 1D, E

In the case of `CN1CCc2cc(Cl)c(O)cc2C(c2ccccc2)C1` (centres unmarked) [2,3,4,5-tetrahydro-8-chloro-3 methyl-5-phenyl-1H-3 benzazepin-7-ol], the “displacement of [125I]BZZ from melanoma tissue” value (B16 melanoma [1]) is reported as “effectively displaced”.

For `CN1CCc2cc(Cl)c(O)cc2[C@@H](c2ccccc2)C1` [R-enantiomer, reference compound], the “concentration required to displace [125I]BZZ from melanoma binding site relative to D-1 dopamine receptor” value (B16 melanoma [1]; B16 melanoma versus caudate homogenate, FIGS. 4A and B) was 400 fold, the “difference between R- and S-enantiomers” value (B16 melanoma [1]; binding site in B16 melanoma, displacement of [125I]BZZ, FIG. 4B) was 5.1 fold and the “affinity for R-enantiomer relative to S-enantiomer” value (D-1 dopamine receptor; D-1 receptor in caudate nucleus, displacement of [125I]BZZ) was 100 fold.

With `CN1CCc2cc([125I])c(O)cc2[C@H](c2ccccc2)C1` [[^125 I]-S-BZZ] the “binding to pigmented B16 melanoma homogenate” value (B16 melanoma [1]; compared with R-enantiomer, FIG. 5) was “to the same degree as did its R-enantiomer”, the “binding to homogenate of caudate nucleus” value [2] was “failed to bind” and the “binding to metastatic human melanoma (frozen section autoradiogram)” value (human melanoma) was “effectively bind”. The “binding to frozen sections of murine B16 melanoma” value (B16 melanoma [3]) was “bound to frozen sections”.

For `CN1CCc2cc([125I])c(O)cc2[C@@H](c2ccccc2)C1` [[^125 I]BZZ], the “amount of bound radioactivity corresponding to 100 percent” value (B16 melanoma [1]; homogenate of B16 melanoma propagated in Swiss Webster mice, FIG. 4B) was 18,033±3,647 cpm/mg wet weight, the “amount of bound radioactivity corresponding to 100 percent” value (D-1 dopamine receptor; homogenate of caudate putamen of Swiss Webster mouse brain) was 23,379±555 cpm/mg wet wt and the “localization of radiolabel within the pigmented eye (autoradiography)” value ([4]; 50 μCi, 45 min, FIG. 3B) was “accumulated predominantly in a narrow band at the back of the pigmented eye”. For the same compound, the “difference between amount of radiolabel accumulated in pigmented and albino eyes” value ([4]; C57B1/6 versus Swiss Webster mouse, 10 μCi intravenous, P<0.001) was 79 fold, the “binding to metastatic human melanoma (frozen section autoradiogram)” value (human melanoma) was “effectively bind” and the “concentration of radiolabel within B-16 melanoma relative to nonpigmented eye” value (B16 melanoma [5]; albino mouse, 10 μCi intravenous, within 45 min, p<0.001) was 19 times. For the same compound, the “accumulation of radiolabel in tumor versus surrounding tissues (autoradiograph)” value (B16 melanoma [5]; frozen section of B16 melanoma after intravenous administration, FIG. 1B, C) was “much higher degree than within the surrounding tissues”, the “accumulation of radiolabel in foci of pigmented cells of lung (metastatic melanoma)” value (B16 melanoma [5]; [8]) was “heavy accumulation of radiolabel” and the “binding of ligand to normal lung tissue” value (B16 melanoma [5]; [8]) was “does not bind the ligand”. For the same compound, the “binding to frozen sections of murine B16 melanoma” value (B16 melanoma [3]) was “bound to frozen sections”, the “localization of radiolabel in frozen section of retina exposed to ligand in vitro” value [6] was “highly concentrated within the melanin containing pigment epithelium” and the “accumulation within the abdomen” value (B16 melanoma [7]) was “substantial accumulation”.
